US20210378193A1, “HAPLOID EMBRYOGENESIS” (STICHTING WAGENINGEN RESEARCH, priority 2013, published 2021)

Columns and labels:
[1] = test system: B. napus microspore culture; assay: embryo yield in B. napus microspore culture; assay type: cell-based, Brassica napus
Description: Brassica napus L. DH12075 was used as a donor plant for microspore embryo culture. The B. napus plant growth and microspore isolation procedures were performed as described in Custers, J. B. M. (2003) “Microspore culture in rapeseed (Brassica napus L.)” in Doubled haploid production in crop plants: a manual, M. Maluszynski, K. J. Kasha, B. P. Forster, and I. Szarejko, eds (Dordrecht: Kluwer Academic Publishers), pp. 185-193. Flower buds for microspore culture were grouped by size (measured from the tip of the flower bud to the bottom of the sepal), ranging from 3.0 to 3.5 mm for DH4079 and from 2.6 to 4.0 mm for DH12075. The microspores were isolated and cultured in NLN-13 medium (see Lichter, R. (1982) […]. For induction of embryogenesis, microspores were cultured in the dark at 33° C. for 20 hours and subsequently transferred to 25° C. Non-induced microspore cultures were cultured continuously at 25° C. or 18° C. Trichostatin A (TSA, Sigma-Aldrich) was prepared in DMSO. Freshly isolated microspores were inoculated in a medium containing TSA or the same volume of DMSO as a control and cultured for 20 hours at the temperature indicated for each experiment. After this period, the cultures were centrifuged at 200 g for 3 min, resuspended in fresh NLN-13 medium without TSA, and transferred to 25° C.
The developmental fate of heat-stressed control cultures and cultures exposed to both heat-stress and TSA was followed by examining older cultures in more detail. […] Heat-stressed microspores and pollen were treated with a range of TSA concentrations, and the cultures examined after five and 15 days using DAPI staining to characterize the different multicellular structures that developed.
Microspores and immature pollen from different bud sizes were cultured in the presence of different concentrations of TSA compared with the equivalent volume of DMSO (control) at three temperatures: A-D=33° C., D-F=25° C., G-H=18° C. For each treatment, the samples are ranked from left to right along the z-axis according to the developmental stage of the microspores and pollen. […] The microspores and pollen were categorized as follows: mid-uninucleate microspore (white bars), late-uninucleate microspore (grey bars), and binucleate pollen (black bars) stages. […] The percentage of cells that divided gametopyhytically or sporophytically after five days of microspore culture at B=33° C., E=25° C., H=18° C. […] Dead microspores and pollen were not counted. […]

[2] = test system: Arabidopsis immature male gametophytes; assay: Arabidopsis anther culture, sporophytic division of immature male gametophytes; assay type: cell-based; details: Col0 anthers, 25° C., 0.5 μM TSA, five days; never observed without TSA
Description: Arabidopsis flower buds at stage 11 were collected for anther culture. Flower buds were surface sterilized in 2% bleach for 10 minutes, then rinsed three times in distilled water. The anthers (without filament) were placed in a liquid NLN-13 medium containing 0.5 μM TSA or the same volume of DMSO and then cut in half transversely in the medium to release the microspores. The cultures were placed at 25° C. for 20 hours in the dark. The medium was then replaced by fresh NLN-13 medium by pipetting gently, and the cultures incubated at 25° C. for an additional four days. Free and loosely attached microspores were collected and stained with DAPI. Arabidopsis hda T-DNA insertion lines were obtained from Nottingham Arabidopsis Stock Centre. At least 300 microspores per sample were counted.
Multicellular structures that resemble the Type II and IV structures seen in Brassica microspore culture are produced when stage 11 Arabidopsis anthers are cultured at 25° C. with 0.5 μM TSA. […] TSA induces embryogenic cell divisions in Arabidopsis immature male gametophytes. Panels show: (A)=DAPI stained anther in TSA-treated culture showing multicellular, sporophytic structures derived from immature male gametophytes (arrow). […] (B)=cleared anther from a control culture showing lack of sporophytic cell proliferation. […]

histone H3 and H4 = assay: Western blot of protein and histone acetylation in B. napus microspore cultures; assay type: cell-based, Brassica napus
Description: Freshly isolated microspores and microspores cultured for 8 hours under different experimental conditions were harvested by centrifugation. Proteins were extracted by boiling in SDS-sample buffer (30 μl per ml of culture) and electrophoresed in a Midget 12.5% SDS-PAGE gel under reducing conditions. After transfer of the proteins to PVDF membrane and blocking with 5% milk powder in PBS, 0.1% Tween 20, the blots were incubated for 2 hours with primary antibody (1:2000 dilution). The primary antibodies used in this study are as follows: anti-acetyl-Lysine (ICP0380; ImmuneChem Pharmaceuticals), anti-Histone H3 (ab1791; Abcam), anti-Histone H4 (clone 62-141-13; Millipore), and anti-acetyl-Histone H3 and anti-acetyl-Histone H4 (Millipore). Secondary goat anti-rabbit-HRP antibody (Sigma) was used in a 1:2000 dilution, and signals were detected by using enhanced chemiluminescence (SuperSignal West Femto Chemiluminescent Substrate, Pierce). An acetylated lysine antibody was used in combination with protein gel blotting to identify proteins whose acetylation status changes in 8-hour heat-stress plus TSA-treated B. napus microspore cultures compared to heat-stressed control cultures. […] Panels show: (A)=Western blot of total acetylated proteins in microspore cultures treated for eight hours with DMSO (control) or TSA—proteins in the range of 10-25 kDa are differentially acetylated after TSA treatment compared to the control; (B)=Western blot of total and acetylated (Ac) histone H3 and H4 in microspore cultures treated for eight hours with DMSO (control) or TSA. The percentages of sporophytic divisions in the different cultures at day 5 are shown under each sample. […] The acetylation status of histones H3 and H4 was determined during microspore culture using acetylated histone H3 (Ac-H3) and H4 (Ac-H4) antibodies. Microspore cultures were started from buds containing mostly binucleate pollen and placed for eight hours at either 18° C. or 33° C. with or without 0.5 μM TSA. […] (FIG. 8B).

CC(/C=C/C(=O)NO)=C\[C@@H](C)C(=O)c1ccc(N(C)C)cc1 [TSA, trichostatin A] was tested, and the embryo production ([1]; culture at 25° C. (no heat stress), practically none in controls) was “Up to 0.2%”, the “development of histodifferentiated embryos” value ([1]; cultured at 18° C.) was “did not develop” and the “embryo abundance relative to control cultures” value ([1]; heat-stressed cultures, 0.05 μM TSA) was “up to five times more abundant than in control cultures”. The “heart to cotyledon stage embryos” value ([1]; heat-stressed cultures, 0.5 μM TSA, 15 days, control up to 0.3%) was “up to 0.05%”, the “percentage of immature male gametophytes that divided sporophytically” value [2] was 0-5% and the “total amount of histone H3 and H4” value (histone H3 and H4; 0.5 μM TSA, eight hours) was “no clear effect”. For the same compound, the “sporophytic divisions compared to untreated controls” value (histone H3 and H4; 0.5 μM TSA, eight hours at 18° C. and 33° C., divisions at day 5) was “greatly enhanced”, the “level of histone H3 and H4 acetylation relative to control” value (histone H3 and H4; 0.5 μM TSA, eight hours, 18° C. and 33° C.) was “increased dramatically” and the “acetylation of small molecular weight proteins in the range of 10-25 kDa” value (histone H3 and H4; 8-hour heat-stress plus TSA versus heat-stressed control) was “Increased protein acetylation”.
